Assay results as given in ChEMBL document CHEMBL1201862, “PubChem BioAssay data set” (2004).
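Step 1: Grow cells in 96-well plates. Step 2: Expose to compound for 48 hours at 5 concentrations. Step 3: Interpolate endpoints linearly; if unreached, use highest concentration. The concentration for 50% growth inhibition is given as GI50.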 Active and inactive are the calls of the source. No stated cut-off is given here; in the data, active = GI50 up to about 1.1 µM and inactive = higher.

Key:
Assay in all cases: DTP human tumour cell line panel, 48 h
[1] = tested on: HCC 2998
[2] = tested on: 786-0
[3] = tested on: OVCAR-8
[4] = tested on: NCI-H522
[5] = tested on: SF-268
[6] = tested on: NCI-H226
[7] = tested on: NCI-H460
[8] = tested on: RXF 393
[9] = tested on: HCT-116
[10] = tested on: SF-295
[11] = tested on: M14
[12] = tested on: COLO 205
[13] = tested on: U-251
[14] = tested on: SNB-19
[15] = tested on: SR
[16] = tested on: KM12
[17] = tested on: RPMI-8226

Measured: GI50

COc1ccc(/C(=N/Nc2ccccc2)C(c2ccc(OC)cc2)C2OC(=O)c3ccccc32)cc1 (stereo not drawn)
inactive: [1] > 100 µM | [2] > 100 µM | [3] > 100 µM | [4] 70.5 µM | [5] 23.3 µM | [6] 9.84 µM | [7] 95.7 µM | [8] > 10 µM | [9] > 100 µM | [10] > 100 µM | [11] > 100 µM | [12] > 100 µM | [13] > 100 µM | [14] > 100 µM

CN(C)c1ccc(/C=C(\NC(=O)c2ccccc2)c2nc3cncnc3[nH]2)cc1
inactive: [1] > 100 µM | [2] > 100 µM | [3] > 100 µM | [4] > 100 µM | [5] > 100 µM | [15] > 100 µM | [8] > 100 µM | [10] > 100 µM | [11] > 100 µM | [16] > 100 µM | [12] > 100 µM | [13] > 100 µM | [14] > 100 µM

CC(=O)Nc1c(C)ccc2c1C(=O)c1ccccc1C2=O
inactive: [17] 65.8 µM | [1] > 100 µM | [2] > 100 µM | [3] 82.6 µM | [4] > 100 µM | [5] > 100 µM | [6] > 100 µM | [7] > 100 µM | [15] > 100 µM | [8] > 100 µM | [9] 91.8 µM | [10] > 100 µM | [11] > 100 µM | [16] > 100 µM | [12] > 100 µM | [13] > 100 µM

S=C1NC(c2ccccc2)=NC(Cc2ccccc2)(c2ccccc2)N1c1ccccc1 (stereo not drawn)
inactive: [17] > 100 µM | [1] > 100 µM | [2] > 100 µM | [3] 41.4 µM | [5] > 100 µM | [6] > 100 µM | [7] > 100 µM | [15] > 100 µM | [8] 68.2 µM | [9] > 100 µM | [10] 37.9 µM | [11] > 100 µM | [16] > 100 µM | [12] > 100 µM | [14] 45.4 µM

N=C(N)Nc1nc2cc(N)ccc2o1
inactive: [1] > 100 µM | [2] > 100 µM | [3] > 100 µM | [4] > 100 µM | [5] > 100 µM | [6] > 100 µM | [7] > 100 µM | [15] > 100 µM | [9] > 100 µM | [10] > 100 µM | [11] > 100 µM | [16] > 100 µM | [13] > 100 µM | [14] > 100 µM

CCCN1CN(C(C(=O)N[C@@H]2C(=O)N3C(C(=O)O)=C(C)CSC23)c2ccc(O)cc2)CSC1=S (stereo partly drawn)
inactive: [17] 72.1 µM | [2] > 100 µM | [3] > 100 µM | [4] 23.6 µM | [5] > 100 µM | [7] 63.1 µM | [9] > 100 µM | [10] > 100 µM | [11] > 100 µM | [16] > 100 µM | [12] 55.6 µM | [13] 97.5 µM | [14] > 100 µM

COc1c(CC(=O)c2ccccc2)c2ccccc2n1C(C)=O
inactive: [17] > 100 µM | [1] > 100 µM | [2] 29.9 µM | [3] 91 µM | [7] > 100 µM | [15] > 100 µM | [8] 34.5 µM | [9] > 100 µM | [10] 72.9 µM | [11] > 100 µM | [16] > 100 µM | [12] > 100 µM | [13] > 100 µM | [14] > 100 µM

COc1ccc2nc(NC(=O)C(=O)C(C#N)c3ccc(CC#N)cc3)sc2c1 (stereo not drawn)
inactive: [17] > 100 µM | [1] > 100 µM | [2] > 100 µM | [3] > 100 µM | [4] > 100 µM | [5] > 100 µM | [6] > 100 µM | [7] > 100 µM | [8] > 100 µM | [9] > 100 µM | [10] > 100 µM | [11] > 100 µM | [16] > 100 µM | [12] > 100 µM | [13] > 100 µM | [14] 53 µM

CCOc1ccc(NC(=O)C(=O)C(C(=O)c2ccc3ccccc3c2)C2OC(=O)c3ccccc32)cc1 (stereo not drawn)
inactive: [17] 4.8 µM | [1] 11.2 µM | [2] 6.47 µM | [3] 17.6 µM | [4] 11.8 µM | [5] 13.3 µM | [6] 3.31 µM | [7] 5.09 µM | [9] 15.7 µM | [11] 18.5 µM | [16] 32.7 µM | [12] 19.1 µM | [13] 5.04 µM | [14] 9.62 µM

CCOC(=O)c1cc(OC(=O)CC)c2c(OC)ccc(OC)c2c1
inactive: [17] 30.5 µM | [1] > 100 µM | [2] 31 µM | [4] > 100 µM | [7] > 100 µM | [15] 18.7 µM | [8] 30.5 µM | [9] 70.1 µM | [16] 42.7 µM | [12] > 100 µM | [13] 53.6 µM | [14] 89.3 µM

CNC(=O)C(C)Oc1ccc(OCC2CCCCC2)cc1 (stereo not drawn)
inactive: [2] > 100 µM | [3] > 100 µM | [4] 25.2 µM | [5] > 100 µM | [6] > 100 µM | [7] 50.4 µM | [8] > 100 µM | [9] > 100 µM | [10] 60.7 µM | [11] > 100 µM | [16] > 100 µM | [13] > 100 µM | [14] > 100 µM

CC(C)(C)S(=O)OC12CC3CC(CC(C3)C1)C2 (stereo not drawn)
inactive: [17] > 100 µM | [2] > 100 µM | [3] > 100 µM | [4] > 100 µM | [5] > 100 µM | [6] > 100 µM | [7] > 100 µM | [15] > 100 µM | [8] > 100 µM | [9] > 100 µM | [10] > 100 µM | [11] > 100 µM | [16] > 10 µM | [12] > 100 µM | [13] > 100 µM | [14] > 100 µM

CN1CCN(C)C1c1cccc(C2N(C)CCN2C)c1
inactive: [17] > 100 µM | [1] > 100 µM | [2] > 100 µM | [4] > 100 µM | [5] > 100 µM | [6] > 100 µM | [7] > 100 µM | [8] > 100 µM | [9] > 100 µM | [10] > 100 µM | [11] > 100 µM | [16] > 100 µM | [12] > 100 µM | [13] > 100 µM | [14] > 100 µM

O=C(C#Cc1ccccc1)NC/C=C/c1ccccc1
inactive: [1] 35.2 µM | [2] 24.2 µM | [3] 35.2 µM | [4] 29.7 µM | [5] 31.5 µM | [6] 31.6 µM | [7] 47.9 µM | [15] 35.6 µM | [8] 14.8 µM | [9] 41.7 µM | [10] 38.6 µM | [11] 55.3 µM | [16] 46.7 µM | [12] 83.4 µM | [13] 39 µM | [14] 26.7 µM

NC1=NS(=O)(=O)Nc2nc(-c3cccs3)[nH]c21
inactive: [17] > 100 µM | [1] > 100 µM | [2] > 100 µM | [3] > 100 µM | [4] > 100 µM | [5] > 100 µM | [7] > 100 µM | [15] > 100 µM | [8] > 100 µM | [9] > 100 µM | [10] > 100 µM | [11] > 100 µM | [16] > 100 µM | [12] > 100 µM | [13] > 100 µM | [14] > 100 µM

Nc1nc[n+](Cc2ccccc2CCO)c2[nH]cnc12
inactive: [17] > 100 µM | [2] > 100 µM | [3] > 100 µM | [4] > 100 µM | [5] > 100 µM | [6] 36.5 µM | [7] > 100 µM | [8] > 100 µM | [10] > 100 µM | [11] > 100 µM | [16] > 100 µM | [12] > 100 µM | [13] > 100 µM | [14] > 100 µM

CCCCCCCCCCCCCP(=O)(O)NCC(N)=O
inactive: [17] 35.1 µM | [1] > 100 µM | [2] > 100 µM | [3] 71.3 µM | [4] 34.5 µM | [5] 48.4 µM | [6] 62.4 µM | [7] > 100 µM | [8] > 100 µM | [9] 45.7 µM | [10] 52 µM | [11] 29.2 µM | [16] 85.1 µM | [12] > 100 µM | [13] 33.5 µM | [14] 45.6 µM

COc1cccc2c1[C@]1(O)C(O)CCCC21 (stereo partly drawn)
inactive: [17] > 100 µM | [1] > 100 µM | [2] > 100 µM | [3] > 100 µM | [4] > 100 µM | [5] > 100 µM | [6] > 100 µM | [7] > 100 µM | [8] > 100 µM | [9] > 100 µM | [10] > 100 µM | [11] > 100 µM | [16] > 100 µM | [12] > 100 µM | [13] > 100 µM | [14] > 100 µM
